Data reported in patent publication US8748415B2 (priority 2011, dated 2014).

System: recombinant NL4-3 virus (Renilla luciferase in nef, Gag P373S)
Experiment: HIV cell culture assay (luciferase activity in MT-2 cells infected with NLRluc recombinant virus)
Format: cell-based
Details: NL43, MT-2 cells infected 4-5 days with NLRluc recombinant virus, class symbol
Method in brief: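 MT-2 cells in RPMI/10% FBS were infected with recombinant NL4-3 (NLRluc), produced by 293T transfection and titered in MT-2 by luciferase. Serial inhibitor dilutions were present throughout a 4–5 day infection. Antiviral activity was quantified as Renilla luciferase signal via a modified Dual Luciferase read.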

Row | SMILES | EC50
1 | C=C(C)[C@@H]1CC[C@]2(CNCCCN3CCS(=O)(=O)CC3)CC[C@]3(C)[C@H](CC[C@@H]4[C@@]5(C)CC=C(c6ccc(C(=O)O)cc6F)C(C)(C)[C@@H]5CC[C@]43C)[C@@H]12 [Example 92, 4-((1R,3aS,5aR,5bR,7aR,11aS,11bR,13aR,13bR)-3a-(((3-(1,1-dioxido-4-thiomorpholinyl)propyl)amino)methyl)-1-isopropenyl-5a,5b,8,8,11a-pentamethyl-2,3,3a,4,5,5a,5b,6,7,7a,8,11,11a,11b,12,13,13a,13b-octadecahydro-1H-cyclopenta[a]chrysen-9-yl)-3-fluorobenzoic acid] | < 100 nM
2 | C=C(C)[C@@H]1CC[C@]2(CNCCCN3CCS(=O)(=O)CC3)CC[C@]3(C)[C@H](CC[C@@H]4[C@@]5(C)CC=C(c6ccc(C(=O)O)c(F)c6)C(C)(C)[C@@H]5CC[C@]43C)[C@@H]12 [Example 93, 4-((1R,3aS,5aR,5bR,7aR,11aS,11bR,13aR,13bR)-3a-(((3-(1,1-dioxido-4-thiomorpholinyl)propyl)amino)methyl)-1-isopropenyl-5a,5b,8,8,11a-pentamethyl-2,3,3a,4,5,5a,5b,6,7,7a,8,11,11a,11b,12,13,13a,13b-octadecahydro-1H-cyclopenta[a]chrysen-9-yl)-2-fluorobenzoic acid] | < 100 nM
3 | C=C(C)[C@@H]1CC[C@]2(CNCCN3CCS(=O)(=O)CC3)CC[C@]3(C)[C@H](CC[C@@H]4[C@@]5(C)CC=C(c6ccc(C(=O)O)cc6F)C(C)(C)[C@@H]5CC[C@]43C)[C@@H]12 [Example 94, 4-((1R,3aS,5aR,5bR,7aR,11aS,11bR,13aR,13bR)-3a-(((2-(1,1-dioxido-4-thiomorpholinyl)ethyl)amino)methyl)-1-isopropenyl-5a,5b,8,8,11a-pentamethyl-2,3,3a,4,5,5a,5b,6,7,7a,8,11,11a,11b,12,13,13a,13b-octadecahydro-1H-cyclopenta[a]chrysen-9-yl)-3-fluorobenzoic acid] | < 100 nM
4 | C=C(C)[C@@H]1CC[C@]2(CNCCN3CCS(=O)(=O)CC3)CC[C@]3(C)[C@H](CC[C@@H]4[C@@]5(C)CC=C(c6ccc(C(=O)O)c(F)c6)C(C)(C)[C@@H]5CC[C@]43C)[C@@H]12 [Example 95, 4-((1R,3aS,5aR,5bR,7aR,11aS,11bR,13aR,13bR)-3a-(((2-(1,1-dioxido-4-thiomorpholinyl)ethyl)amino)methyl)-1-isopropenyl-5a,5b,8,8,11a-pentamethyl-2,3,3a,4,5,5a,5b,6,7,7a,8,11,11a,11b,12,13,13a,13b-octadecahydro-1H-cyclopenta[a]chrysen-9-yl)-2-fluorobenzoic acid] | < 100 nM
5 | C=C(C)[C@@H]1CC[C@]2(CNCCC(=O)N3CCCCC3)CC[C@]3(C)[C@H](CC[C@@H]4[C@@]5(C)CC=C(c6ccc(C(=O)O)cc6)C(C)(C)[C@@H]5CC[C@]43C)[C@@H]12 [Example 96, 4-((1R,3aS,5aR,5bR,7aR,11aS,11bR,13aR,13bR)-5a,5b,8,8,11a-pentamethyl-3a-((3-oxo-3-(piperidin-1-yl)propylamino)methyl)-1-(prop-1-en-2-yl)-2,3,3a,4,5,5a,5b,6,7,7a,8,11,11a,11b,12,13,13a,13b-octadecahydro-1H-cyclopenta[a]chrysen-9-yl)benzoic acid] | < 100 nM
6 | C=C(C)[C@@H]1CC[C@]2(CNCCC(=O)N3CCN(S(=O)(=O)N(C)C)CC3)CC[C@]3(C)[C@H](CC[C@@H]4[C@@]5(C)CC=C(c6ccc(C(=O)O)cc6)C(C)(C)[C@@H]5CC[C@]43C)[C@@H]12 [Example 97, 4-((1R,3aS,5aR,5bR,7aR,11aS,11bR,13aR,13bR)-3a-((3-(4-(N,N-dimethylsulfamoyl)piperazin-1-yl)-3-oxopropylamino)methyl)-5a,5b,8,8,11a-pentamethyl-1-(prop-1-en-2-yl)-2,3,3a,4,5,5a,5b,6,7,7a,8,11,11a,11b,12,13,13a,13b-octadecahydro-1H-cyclopenta[a]chrysen-9-yl)benzoic acid] | < 100 nM
7 | C=C(C)[C@@H]1CC[C@]2(CNCCC(=O)N3CCC(C(=O)OCC)CC3)CC[C@]3(C)[C@H](CC[C@@H]4[C@@]5(C)CC=C(c6ccc(C(=O)O)cc6)C(C)(C)[C@@H]5CC[C@]43C)[C@@H]12 [Example 98, 4-((1R,3aS,5aR,5bR,7aR,11aS,11bR,13aR,13bR)-3a-((3-(4-(ethoxycarbonyl)piperidin-1-yl)-3-oxopropylamino)methyl)-5a,5b,8,8,11a-pentamethyl-1-(prop-1-en-2-yl)-2,3,3a,4,5,5a,5b,6,7,7a,8,11,11a,11b,12,13,13a,13b-octadecahydro-1H-cyclopenta[a]chrysen-9-yl)benzoic acid] | < 100 nM
8 | C=C(C)[C@@H]1CC[C@]2(CNCCC(=O)NCCC(=O)N(C)C)CC[C@]3(C)[C@H](CC[C@@H]4[C@@]5(C)CC=C(c6ccc(C(=O)O)cc6)C(C)(C)[C@@H]5CC[C@]43C)[C@@H]12 [Example 99, 4-((1R,3aS,5aR,5bR,7aR,11aS,11bR,13aR,13bR)-3a-((3-(3-(dimethylamino)-3-oxopropylamino)-3-oxopropylamino)methyl)-5a,5b,8,8,11a-pentamethyl-1-(prop-1-en-2-yl)-2,3,3a,4,5,5a,5b,6,7,7a,8,11,11a,11b,12,13,13a,13b-octadecahydro-1H-cyclopenta[a]chrysen-9-yl)benzoic acid] | < 100 nM
9 | C=C(C)[C@@H]1CC[C@]2(CNCCC(=O)N3CCC[C@@H]3C(=O)O)CC[C@]3(C)[C@H](CC[C@@H]4[C@@]5(C)CC=C(c6ccc(C(=O)O)cc6)C(C)(C)[C@@H]5CC[C@]43C)[C@@H]12 [Example 100, (R)-1-(3-(((1R,3aS,5aR,5bR,7aR,11aS,11bR,13aR,13bR)-9-(4-carboxyphenyl)-5a,5b,8,8,11a-pentamethyl-1-(prop-1-en-2-yl)-2,3,3a,4,5,5a,5b,6,7,7a,8,11,11a,11b,12,13,13a,13b-octadecahydro-1H-cyclopenta[a]chrysen-3a-yl)methylamino)propanoyl)pyrrolidine-2-carboxylic acid] | < 100 nM
10 | C=C(C)[C@@H]1CC[C@]2(CNCCC(=O)N3CCC[C@H]3C(=O)OC)CC[C@]3(C)[C@H](CC[C@@H]4[C@@]5(C)CC=C(c6ccc(C(=O)O)cc6)C(C)(C)[C@@H]5CC[C@]43C)[C@@H]12 [Example 101, 4-((1R,3aS,5aR,5bR,7aR,11aS,11bR,13aR,13bR)-3a-((3-((S)-2-(methoxycarbonyl)pyrrolidin-1-yl)-3-oxopropylamino)methyl)-5a,5b,8,8,11a-pentamethyl-1-(prop-1-en-2-yl)-2,3,3a,4,5,5a,5b,6,7,7a,8,11,11a,11b,12,13,13a,13b-octadecahydro-1H-cyclopenta[a]chrysen-9-yl)benzoic acid] | < 100 nM
11 | C=C(C)[C@@H]1CC[C@]2(CNCCC(=O)N3CCC[C@H]3C(=O)O)CC[C@]3(C)[C@H](CC[C@@H]4[C@@]5(C)CC=C(c6ccc(C(=O)O)cc6)C(C)(C)[C@@H]5CC[C@]43C)[C@@H]12 [Example 102, (S)-1-(3-(((1R,3aS,5aR,5bR,7aR,11aS,11bR,13aR,13bR)-9-(4-carboxyphenyl)-5a,5b,8,8,11a-pentamethyl-1-(prop-1-en-2-yl)-2,3,3a,4,5,5a,5b,6,7,7a,8,11,11a,11b,12,13,13a,13b-octadecahydro-1H-cyclopenta[a]chrysen-3a-yl)methylamino)propanoyl)pyrrolidine-2-carboxylic acid] | < 100 nM
12 | C=C(C)[C@@H]1CC[C@]2(CNCCC(=O)N3CCC(F)(F)C3)CC[C@]3(C)[C@H](CC[C@@H]4[C@@]5(C)CC=C(c6ccc(C(=O)O)cc6)C(C)(C)[C@@H]5CC[C@]43C)[C@@H]12 [Example 103, 4-((1R,3aS,5aR,5bR,7aR,11aS,11bR,13aR,13bR)-3a-((3-(3,3-difluoropyrrolidin-1-yl)-3-oxopropylamino)methyl)-5a,5b,8,8,11a-pentamethyl-1-(prop-1-en-2-yl)-2,3,3a,4,5,5a,5b,6,7,7a,8,11,11a,11b,12,13,13a,13b-octadecahydro-1H-cyclopenta[a]chrysen-9-yl)benzoic acid] | < 100 nM
13 | C=C(C)[C@@H]1CC[C@]2(CNCCC(=O)N3CCC(C(=O)O)CC3)CC[C@]3(C)[C@H](CC[C@@H]4[C@@]5(C)CC=C(c6ccc(C(=O)O)cc6)C(C)(C)[C@@H]5CC[C@]43C)[C@@H]12 [Example 104, 1-(3-(((1R,3aS,5aR,5bR,7aR,11aS,11bR,13aR,13bR)-9-(4-carboxyphenyl)-5a,5b,8,8,11a-pentamethyl-1-(prop-1-en-2-yl)-2,3,3a,4,5,5a,5b,6,7,7a,8,11,11a,11b,12,13,13a,13b-octadecahydro-1H-cyclopenta[a]chrysen-3a-yl)methylamino)propanoyl)piperidine-4-carboxylic acid] | < 100 nM
14 | C=C(C)[C@@H]1CC[C@]2(CNCCC(=O)N3CCN(C)CC3)CC[C@]3(C)[C@H](CC[C@@H]4[C@@]5(C)CC=C(c6ccc(C(=O)O)cc6)C(C)(C)[C@@H]5CC[C@]43C)[C@@H]12 [Example 105, 4-((1R,3aS,5aR,5bR,7aR,11aS,11bR,13aR,13bR)-5a,5b,8,8,11a-pentamethyl-3a-((3-(4-methylpiperazin-1-yl)-3-oxopropylamino)methyl)-1-(prop-1-en-2-yl)-2,3,3a,4,5,5a,5b,6,7,7a,8,11,11a,11b,12,13,13a,13b-octadecahydro-1H-cyclopenta[a]chrysen-9-yl)benzoic acid] | < 100 nM
15 | C=C(C)[C@@H]1CC[C@]2(CNCCC(=O)N3CC(F)(F)C(F)(F)C3)CC[C@]3(C)[C@H](CC[C@@H]4[C@@]5(C)CC=C(c6ccc(C(=O)O)cc6)C(C)(C)[C@@H]5CC[C@]43C)[C@@H]12 [Example 106, 4-((1R,3aS,5aR,5bR,7aR,11aS,11bR,13aR,13bR)-5a,5b,8,8,11a-pentamethyl-3a-((3-oxo-3-(3,3,4,4-tetrafluoropyrrolidin-1-yl)propylamino)methyl)-1-(prop-1-en-2-yl)-2,3,3a,4,5,5a,5b,6,7,7a,8,11,11a,11b,12,13,13a,13b-octadecahydro-1H-cyclopenta[a]chrysen-9-yl)benzoic acid] | < 100 nM
